Each molecule was assayed against T1, P2X7 receptor (UniProt Q99572) (assay: pKi of Table 1 (assay not stated)).
T1 sequence (Q99572 1-595): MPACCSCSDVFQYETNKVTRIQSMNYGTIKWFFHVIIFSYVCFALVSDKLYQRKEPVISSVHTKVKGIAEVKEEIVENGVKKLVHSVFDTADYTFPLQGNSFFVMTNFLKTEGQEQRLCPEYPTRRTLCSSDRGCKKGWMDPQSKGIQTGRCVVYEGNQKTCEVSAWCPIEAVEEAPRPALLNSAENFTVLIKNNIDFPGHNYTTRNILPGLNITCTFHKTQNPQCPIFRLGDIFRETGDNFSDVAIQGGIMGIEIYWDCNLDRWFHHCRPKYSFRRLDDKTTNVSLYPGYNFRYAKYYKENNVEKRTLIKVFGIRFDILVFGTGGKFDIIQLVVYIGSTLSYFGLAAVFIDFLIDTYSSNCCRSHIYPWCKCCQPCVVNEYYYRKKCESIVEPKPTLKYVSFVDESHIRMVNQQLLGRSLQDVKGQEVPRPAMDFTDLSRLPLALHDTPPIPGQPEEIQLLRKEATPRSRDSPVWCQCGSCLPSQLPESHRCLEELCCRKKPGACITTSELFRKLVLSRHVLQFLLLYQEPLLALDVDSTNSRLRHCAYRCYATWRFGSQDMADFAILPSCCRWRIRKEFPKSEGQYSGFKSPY
Format: cell-based
Experimental: Intracellular Calcium Flux (FLIPR) Assay
Stock solutions of compounds were prepared from powders as a 10 mM DMSO stock solution. These solutions were stored at RT during the two week period of these experiments to prevent freeze-thaw of the DMSO stocks. The DMSO stocks were added to the appropriate assay buffer at a concentration of 10 μM, and then diluted serially to the final concentrations that were tested. […] The aqueous solutions of compounds as well as ATP (Sigma A7699) and BzATP (Sigma B6396) were prepared fresh for each day of experiment.
1321N1 cells stably expressing the full length human P2X7 gene (1321N1-hP2X7) and HEK293 cells stably expressing the full length rat P2X7 gene (HEK293-rP2X7) were obtained from the Roche Cell Culture Facility. 1321N1-hP2X7 cells were grown in Dulbecco's Modified Eagle's Medium (DMEM) high glucose supplemented with 10% FBS and 250 μg/mL G418. HEK293-rP2X7 cells were grown in DMEM/F-12 supplemented with 10% FBS, 1 mM CaCl2, 2 mM MgCl2, 2 mM L-Glutamine and 500 μg/ml G418. Cells were split such that they never became>70% confluent.
On the day prior to the experiment, 1321N1-hP2X7 or HEK293-rP2X7 cells were released into suspension with calcium-free PBS+Versene and washed by centrifugation with calcium-free PBS to remove the Versene. Cells were resuspended in growth medium at a density of 2.5×10^5 cells/mL and seeded into black walled, clear bottom 96 well plates (50,000 cells/well) approximately 18 hr prior to intracellular calcium flux experiments.
On the day of the experiment, plates were washed with FLIPR buffer (calcium- and magnesium-free Hank's Balanced Salt Solution (HBSS) supplemented with 10 mM Hepes, 2.5 mM probenecid and 2 mM calcium chloride) using a BIO-TEK 96 channel plate washer and incubated with […] fluo-3 dye at 37° C. for one hr. The dye was then removed by plate washing and the cells were allowed to equilibrate for 20 min at room temperature with antagonist or vehicle (FLIPR buffer). Agonist (100 μM BzATP final concentration for hP2X7; 5 μM BzATP final concentration or rP2X7) was added online with the FLIPR and fluorescence measurements made at 1 sec intervals for 60 sec followed by 3 sec intervals for a further 4 min (5 min total). A final addition of 5 μM ionomycin was made and the maximal BzATP-evoked fluorescence normalized to the maximal ionomycin-evoked fluorescence.

| SMILES | pKi |
| --- | --- |
| Cc1ccc2ncccc2c1NC(=O)C1=CNC(=O)C[C@H]1c1cccc(F)c1 [Compound 12, (S)-4-(3-Fluoro-phenyl)-6-oxo-1,4,5,6-tetrahydro-pyridine-3-carboxylic acid (6-methyl-quinolin-5-yl)-amide] | 7.695 |
| Cc1ccc2c(=O)n(C)ccc2c1NC(=O)C1=CN(C)C(=O)C[C@H]1c1ccc(F)cc1 [Compound 52, (S)-4-(4-Fluoro-phenyl)-1-methyl-6-oxo-1,4,5,6-tetrahydro-pyridine-3-carboxylic acid (2,6-dimethyl-1-oxo-1,2-dihydro-isoquinolin-5-yl)-amide] | 7.45 |
| O=C1C[C@@H](c2ccc(F)cc2)C(C(=O)Nc2cc3c(cc2Br)OCC(=O)N3CCO)=CN1 [Compound 38, (S)-4-(4-Fluoro-phenyl)-6-oxo-1,4,5,6-tetrahydro-pyridine-3-carboxylic acid [7-bromo-4-(2-hydroxy-ethyl)-3-oxo-3,4-dihydro-2H-benzo[1,4]oxazin-6-yl]-amide] | 5.25 |
| CN1C(=O)COc2cc(Br)c(NC(=O)C3=CNC(=O)C[C@H]3c3cccc(F)c3)cc21 [Compound 22, (S)-4-(3-Fluoro-phenyl)-6-oxo-1,4,5,6-tetrahydro-pyridine-3-carboxylic acid (7-bromo-4-methyl-3-oxo-3,4-dihydro-2H-benzo[1,4]oxazin-6-yl)-amide] | 6.905 |

Source: patent US8372865B2, “Dihydropyridone amides as P2X7 modulators” (Roche Palo Alto LLC, priority 2008, dated 2013)
